Assay results as given in publication PMC5107945, “Abscinazole-E3M, a practical inhibitor of abscisic acid 8′-hydroxylase for improving drought tolerance” (Scientific Reports, 2016).
Where two headings read alike, the source gives them in different places.

Tests used:
[1] = molecular target: T1, Rice recombinant CYP701A6 (ent-kaurene oxidase) (Oryza sativa subsp. japonica, UniProt Q5Z5R4); experiment: CYP701A6 inhibition assay (formation of end product KA); type: biochemical
T1 construct: made in house; host or cells: insect cells (baculovirus vector)
T1 sequence (Q5Z5R4 1-505): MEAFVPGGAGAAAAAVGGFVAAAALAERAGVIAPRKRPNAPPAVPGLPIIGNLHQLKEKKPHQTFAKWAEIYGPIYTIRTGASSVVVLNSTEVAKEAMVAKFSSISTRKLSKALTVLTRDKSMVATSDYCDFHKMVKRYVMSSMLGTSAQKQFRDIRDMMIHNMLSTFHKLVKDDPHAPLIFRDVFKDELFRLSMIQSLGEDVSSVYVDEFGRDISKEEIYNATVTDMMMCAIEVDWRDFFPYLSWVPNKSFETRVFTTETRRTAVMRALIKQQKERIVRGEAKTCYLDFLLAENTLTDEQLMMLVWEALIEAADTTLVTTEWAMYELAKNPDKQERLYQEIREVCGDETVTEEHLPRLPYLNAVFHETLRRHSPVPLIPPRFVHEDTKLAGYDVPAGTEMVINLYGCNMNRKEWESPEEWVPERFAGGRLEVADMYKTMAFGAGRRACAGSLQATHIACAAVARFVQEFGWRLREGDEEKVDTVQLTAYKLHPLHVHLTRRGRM
Method: To evaluate the enzymatic selectivity between CYP707A and CYP701A, we examined the inhibitory activity against recombinant rice containing CYP701A6 expressed in insect cells using a baculovirus vector. This enzyme catalyses all three steps to KA via the corresponding alcohol and aldehyde, and consequently, the kinetic analysis is very complicated. Therefore, we evaluate the IC50 value for the formation of the end product, KA, instead of the KI value.
Reaction mixtures, containing 0.058 μM of […] microsomes, ATR2 (0.115 U), ent-kaurene (final concentration of 10 μM), inhibitors (0 for control, 1.5–1,500 μM in 8 μL dimethylformamide), and 20 mM NADPH in 500 mM potassium phosphate buffer (pH 7.4), were incubated at 30 °C for 10 min. Reactions were initiated by adding NADPH and stopped by the addition of 100 μL of 1 M HCl. Abietic acid, as the internal standard, was then added to the reaction product, which was extracted with EtOAc (400 μL × 3). The organic phase was dried over Na2SO4 and concentrated in vacuo. To derivatize the reaction products, MeOH (50 μL) and trimethylsilyldiazomethane (2 M in 5 μL hexane) were added, and the reaction mixture was incubated at room temperature for 10 min. The organic solvent was removed under N2, and samples were adjusted to 150 μL with hexane before a gas chromatography-mass spectrometry analysis (QP2010-plus; Shimadzu Corp., Kyoto, Japan). The conditions were as follows: the column was DB-5ms (0.25 mm id × 15 m, 0.25 μm film thickness; Agilent J & W, Folsom, CA, USA), the carrier gas was He, the flow rate was 1.65 mL min^−1, the injection port temperature was 280 °C, splitless injection, and the programmed column temperature was a step gradient of 80 °C for 1 min, 80–200 °C at 18 °C min^−1, 200–210 °C at 2 °C min^−1, 210–280 °C at 30 °C min^−1, and then 280 °C for 3 min. The KA content was calculated from the area ratio of molecular and fragment ions of methyl KA (m/z 316, 273, and 257) to those of methyl abietate (m/z 316 and 256). The inhibition ratio was defined as [(A − B)/A] × 100, where A = the amount of methyl KA/methyl abietate when the inhibitor was absent from the reaction mixture (control), and B = the amount of methyl KA/methyl abietate when the inhibitor was present. All of the tests were conducted at least three times.

[2] = system: rice seedling growth; experiment: Rice seedling elongation assay; type: in vivo, Oryza sativa L. cv. Nipponbare; settings: 0.3 μM; 7 d
Method: The effects of (−)-Abz-T compounds were also tested on the early growth of rice seedlings to investigate whether the plant growth-retardant effect derived from UNI declined. […] This was the same trend observed for (−)-Abz-E2B[26]. […] Thus, the growth-retardant effects of (−)-Abz-T compounds may arise from an increase in the endogenous ABA level due to the CYP707A inhibition, although we cannot exclude the possibility that Abz-T compounds may inhibit off-target enzymes other than CYP707A and CYP701A.
Figure 4 Effects of (−)-Abz-T compounds on rice seedling growth compared with the effects of UNI and (−)-Abz-E2B. Seedlings grown on test media containing indicated concentrations of azole inhibitors for 7 d. Scale bars represent 10 mm. Compound 6 is also referred to as Abz-E3M.
For the rice seedling elongation assay, seven seeds (Oryza sativa L. cv. Nipponbare) were sterilised with reagent-grade EtOH for 5 min and washed with running tap water. They were then soaked in distilled water and incubated under continuous illumination at 25 °C for 3 d to germinate. The germinated seeds were then soaked in 2 mL of a test medium in a glass tube and grown under continuous illumination at 25 °C. When the seedlings were 7 d old, the length of the second leaf sheath was measured. All of the assays were conducted at least three times.

[3] = molecular target: T2, Arabidopsis recombinant CYP707A3 (ABA 8′-hydroxylase) (Arabidopsis thaliana, UniProt Q9FH76); experiment: CYP707A3 inhibition assay (decrease of enzymatic product PA); type: biochemical; settings: Arabidopsis recombinant CYP707A3 expressed in E. coli; for IC50: 5 μM ABA as substrate, read-out: CYP707A IC50
T2 construct: made in house; host or cells: Escherichia coli (microsomal/membrane fraction)
T2 sequence (Q9FH76 1-463): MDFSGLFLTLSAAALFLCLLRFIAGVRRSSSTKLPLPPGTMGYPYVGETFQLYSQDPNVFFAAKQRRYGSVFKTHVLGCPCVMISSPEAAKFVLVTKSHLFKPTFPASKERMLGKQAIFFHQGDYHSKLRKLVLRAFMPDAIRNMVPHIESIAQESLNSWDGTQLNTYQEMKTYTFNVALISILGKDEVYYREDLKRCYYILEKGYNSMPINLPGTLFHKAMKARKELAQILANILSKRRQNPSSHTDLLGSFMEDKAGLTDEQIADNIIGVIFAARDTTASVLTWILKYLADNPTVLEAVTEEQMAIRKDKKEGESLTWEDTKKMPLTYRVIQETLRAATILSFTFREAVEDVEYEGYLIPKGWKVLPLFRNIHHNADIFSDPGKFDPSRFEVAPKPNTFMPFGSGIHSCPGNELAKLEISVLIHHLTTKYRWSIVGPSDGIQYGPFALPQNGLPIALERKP
Method: The inhibitory activities of Abz-T compounds against ABA 8′-hydroxylase were examined using recombinant Arabidopsis CYP707A3 co-expressed with Arabidopsis P-450 reductase (ATR1) in Escherichia coli[22]. The activity levels were evaluated based on the decrease in the amount of the enzymatic product, PA.
Reactions were initiated by adding NADPH, stopped by the addition of 25 μL of 1 M NaOH and then acidified with 50 μL of 1 M HCl. Reaction products were extracted by loading the mixture onto an Oasis HLB cartridge (1 mL, 30 mg; Waters Corp., Milford, MA, USA) and were washed with 1 mL of 10% MeOH in H2O (v/v) containing 1% acetic acid (AcOH, v/v). The enzyme products were then eluted with 1 mL of MeOH containing 1% AcOH, and the eluate was concentrated in vacuo. Each dried sample was then dissolved in 50 μL of MeOH, and a 20-μL volume was subjected to HPLC (Prominence; Shimadzu Corp., Kyoto, Japan). HPLC conditions were as follows: the octadecylsilyl column was composed of Hydrosphere C18 (150 × 6.0 mm, YMC Co., Ltd., Kyoto, Japan), and the solvent comprised 17% acetonitrile (MeCN) in H2O containing 0.05% AcOH (v/v). The flow rate was 1.0 mL min^−1, and detection was at 254 nm. Enzyme activity was evaluated by determining the amount of PA in control experiments prior to taking each set of measurements. The inhibition constants were determined using the Enzyme Kinetics module of the SigmaPlot 10 software (Systat Software, Inc., San Jose, CA, USA) after determining the inhibition mode by plotting the reaction velocity in the presence and absence of the inhibitor on a double-reciprocal plot. The inhibition ratio was defined as [(A − B)/A] × 100, where A = the amount of PA when the inhibitor was absent from the reaction mixture (control), and B = the amount of PA when the inhibitor was present. All of the tests were conducted at least three times.

[4] = system: ABA-responsive genes MAPKKK18, RD29A and RD29B; experiment: qRT-PCR of ABA-responsive genes in Arabidopsis seedlings; type: in vivo, Arabidopsis (Columbia accession); settings: 10-day-old seedlings, 6 h
Method: Figure 5 Effects of (−)-Abz-E3M on the expression levels of Arabidopsis ABA-responsive genes. Expression of MAPKKK18, RD29A and RD29B after treatment with (−)-Abz-E2B or (−)-Abz-E3M in the absence or presence of 0.25 μM ABA (n = 4, error bar represents s.d.).
Arabidopsis (Columbia accession) were grown for 10 d on agar plates containing 1/2 Murashige and Skoog (MS) and 0.5% sucrose at 22 °C under an 18/6-h light/dark cycle. Seedlings were incubated in the chemical solutions for 6 h. Total RNA from seedlings was isolated using the Plant RNA purification reagent (Thermo Fisher Scientific) according to the manufacturer’s instructions. cDNA was synthesised using the QuantiTec reverse transcription kit (Qiagen). Maize (cv. Gold rush, Sakata Seed Corporation) seedlings were grown in 100-mL pots containing 75 g of moist soil in a glass house. The root parts of the maize seedlings were washed with tap water and dipped in 100 μM (−)-Abz-E3M chemical solution containing 0.05% Tween-20 overnight. Total RNA from maize seedlings was isolated using an RNeasy mini kit (Qiagen) with the ‘on-column’ DNA digestion method. cDNA was synthesised using a High-Capacity cDNA Reverse Transcription Kit (Thermo Fisher Scientific). Real-time PCR using SYBR Premix Ex Taq™ II (Takara) was performed with Step One-Plus (Thermo Fisher Scientific). The primer sets are shown in Supplemental Table S1.

[5] = Rice recombinant CYP701A6 expressed in insect cells, 10 μM ent-kaurene, formation of KA, read-out: CYP701A IC50

| Compound | IC50 [1] | Effect on elongation of rice seedlings [2] | IC50 [3] | IC50 [1, 5] | Ki ([3]; ABA 1–64 μM, read-out: CYP707A KI) | Expression of ABA-responsive genes MAPKKK18, RD29A and RD29B ([4]; absence of exogenous ABA) | Expression of ABA-responsive genes MAPKKK18, RD29A and RD29B ([4]; co-treatment with 0.25 μM ABA) |
| --- | --- | --- | --- | --- | --- | --- | --- |
| CC(C)(C)[C@H](O)/C(=C\c1ccc(Cl)cc1)n1cncn1 [UNI, S-uniconazole, reference compound] | 57 nM | strongly inhibited the elongation of rice seedlings | – | – | – | – | – |
| abscinazole-E2B [(+)-Abz-E2B, reference compound] | – | – | 1100 nM | 1300 nM | – | – | – |
| abscinazole-E2B [(−)-Abz-E2B, reference compound] | – | – | 54 nM | 1200 nM | 38 nM | did not induce the expression | enhanced the expression levels of ABA-responsive genes |
| abscinazole-E3M [(+)-6] | – | – | 1200 nM | 1600 nM | – | – | – |
